Data from patent publication US4456597A.

Legend:
Format in all cases: cell-based
Details in all cases: 1.0 μg/ml
spleen cell suspension [1] = assay: IF induction in vitro, rabbit (Table 6)
Experimental: (§1) A spleen cell suspension (10^7 cells/ml) was prepared by the method of hereinafter described Experiment 1 using an Eagle MEM medium (commercial product of Nissui Seiyaku K.K., Tokyo) containing a 10% calf serum (which was replaced by a 10% fetal cattle serum in the cases of human tests), each of which fraction (1 ml) was added with a given concetration of the sample and incubated overnight at a given temperature. The cultured liquor was centrifuged to separate a supernatant which was used for determining the IF activity induced. In the case of humans, the fresh spleen was collected from a person (adult deceased by external wounds) and used for the preparation of a leucocytes suspension on each occasion, and also blood was collected from the vein at the upper arm of a person (adult), from which the serum was separated to use for the preparation of a serum suspension on each occasion.
(§2) The IF activities were determined by using the cells shown in Table 5 in a similar manner to that hereinafter described in Experiment 1.

Human (spleen) = assay: IF induction in vitro, human spleen (Table 6)
Experimental: as §1, §2

spleen cell suspension [2] = assay: IF induction in vitro, mouse (Table 6)
Experimental: as §1, §2

Substance: Poly I:C
- IF activity in vitro (Control) (spleen cell suspension [1]): 190
- IF activity in vitro (Control) (Human (spleen)): < 10
- IF activity in vitro (Control) (spleen cell suspension [2]): 80
